Measured values as given in PMC10590756, “Glutarate regulates T cell metabolism and anti-tumour immunity” (Nature Metabolism, 2023).

System: human CD8^+ T cells
Assay: Isotope tracing of ^13C5-labelled DEG and intracellular glutarate by LC-tandem MS
Assay type: in vitro ADME
Protocol: To affirm that exogenous administration of DEG leads to increased intracellular glutarate levels, we performed isotope tracing of human CD8^+ T cells treated with ^13C5-labelled DEG.
Cells were counted to determine viable cell numbers (Fig. 1f,h,i and Extended Data Fig. g,h,k). A total of 0.5–2 × 10^6 viable cells were collected, washed with cold PBS and metabolic activity was quenched by freezing samples in dry ice and ethanol, and stored at −80 °C. Metabolites were extracted by adding 150 μl ice-cold 1:1 (vol/vol) methanol/water (containing 1 mM N-cyclohexyl-2-aminoethanesulfonic acid (CHES) as an internal standard) to the cell pellets; samples were transferred to a chilled microcentrifuge tube containing 150 μl chloroform and […] (750 μl total in 3:1:1 vol/vol methanol/water/chloroform). Samples were sonicated in a water bath for 8 min at 4 °C, and centrifuged (13,000g) for 10 min at 4 °C. The supernatant containing the extract was transferred to a new tube for evaporation using TurboVap LV (Biotage), resuspended in 3:3:1 (vol/vol/vol) methanol/water/chloroform (350 μl total) to phase-separate polar metabolites from apolar metabolites and centrifuged. The aqueous phase was transferred to a new tube for evaporation using TurboVap LV, washed with 60 μl methanol and dried again. Evaporated extracts were dissolved in 100 µl MeOH–50% water, before injection on the machine. Isotopically labelled glutarates were determined by liquid chromatography (LC)–tandem mass spectrometry (tandem MS) on a Waters ACQUITY UPLC system coupled to a Xevo-TQ-XS mass spectrometer. […] The column was subsequently washed in 75% A for 2.5 min and re-equilibrated at initial conditions for 3 min. MS analyses were performed in multiple reaction monitoring (MRM) mode, with positive electrospray ionization (ESI) from minute 0 – 1.4 and negative electrospray ionization (ESI) from minute 1.4 to minute 4.7. Positive ESI was conducted according to the following parameters: capillary potential 3 kV, source offset 30 V, cone voltage 15 V, source temperature 150 °C, desolvation temperature 600 °C, cone gas flow 150 l h^−1, desolvation gas flow, 1,000 l h^−1, nebulizer 7 bar and collision gas flow 0.17 ml min^−1. Negative ESI was operated under the same conditions but with a capillary potential set to 2 kV and a cone voltage set to 20 V. Acquisition was performed using MRM with the mass transitions and parameters illustrated in Supplementary Table 4. […]
Cells were counted to determine the viable cell numbers (Extended Data Fig. 1i,n). […]
Glutarate was determined by LC–tandem MS on a Waters ACQUITY UPLC system coupled to a Xevo-TQ-S mass spectrometer (Waters). […]

CCOC(=O)CCCC(=O)OCC [DEG, Diethyl glutarate]
time of conversion of DEG to glutarate intracellularly: ≤ 15 min
increase of measured intracellular glutarate concentrations (500 µM DEG, 7 days): approximately twofold
intracellular DEG (15 min after administration of the labelled compound): could not be detected
conversion of DEG into intracellular glutarate after uptake (^13C5-labelled DEG): very rapidly converted into intracellular glutarate
